# Assay results published in patent publication US20230040770A1, “HETEROCYCLIC COMPOUND AND USE THEREOF” (TAKEDA PHARMACEUTICAL COMPANY LIMITED, priority 2019, published 2023).
# Target: T1, human orexin type 2 receptor (Homo sapiens, UniProt O43614)
# T1 construct: expressed in transfected cells
# T1 sequence (O43614 1-444): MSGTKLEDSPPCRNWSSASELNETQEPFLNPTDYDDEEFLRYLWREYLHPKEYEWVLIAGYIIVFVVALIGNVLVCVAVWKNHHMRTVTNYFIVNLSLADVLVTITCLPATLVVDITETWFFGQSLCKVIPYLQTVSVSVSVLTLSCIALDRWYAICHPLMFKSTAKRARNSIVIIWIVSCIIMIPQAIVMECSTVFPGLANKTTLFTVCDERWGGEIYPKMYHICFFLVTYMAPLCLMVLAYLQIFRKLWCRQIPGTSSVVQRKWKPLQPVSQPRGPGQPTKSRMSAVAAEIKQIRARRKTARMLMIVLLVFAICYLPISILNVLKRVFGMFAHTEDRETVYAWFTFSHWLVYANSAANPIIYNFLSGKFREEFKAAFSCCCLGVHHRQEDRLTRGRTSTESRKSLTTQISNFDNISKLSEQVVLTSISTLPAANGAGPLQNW
# Test: Measurement of orexin type 2 receptor agonist activity (calcium indicator fluorescence, CHO cells forcibly expressing human OX2 receptor)
# Type: cell-based
# Settings: compound at 3 μM; 0% = DMSO, 100% = orexin A (human) 10 nM
# Text: To obtain a cell clone stably expressing human orexin type 2 receptor, human orexin type 2 receptor cDNA was inserted into pcDNA3.1(+) plasmid vector (Invitrogen), and a plasmid DNA for expression of human orexin type 2 receptor (pcDNA3.1(+)/hOX2R) was cloned. The plasmid DNA was introduced into CHO-dhfr cell by an electroporation method, and human orexin type 2 receptor expressing clone cells were obtained by limiting dilution method by using G418 drug resistance as a selection marker.
# CHO cells forcibly expressing human OX2 receptor were seeded in each well of 384 well black transparent bottom plate (BD Falcon) at 7,500 cells/well, and cultured for one day in a 5% CO2 incubator at 37° C. After removal of the medium in the cell plate, assay buffer A containing a calcium indicator (HBSS (Thermo Fisher Scientific), 20 mM HEPES (Thermo Fisher Scientific), 0.1% BSA (Sigma-Aldrich), 2.5 μg/mL Fluo-4 AM (DOJINDO Chemical), 0.08% Pluronic F127 (DOJINDO Chemical), 1.25 mM probenecid (DOJINDO Chemical)) was added at 30 μL/well. The plate was stood for 30 min in a 5% CO2 incubator at 37° C., and further stood at room temperature for 30 min. A test compound prepared by diluting with assay buffer B (HBSS, 20 mM HEPES, 0.1% BSA) was added at 10 μL/well, and the fluorescence value was measured by FDSSμCELL (Hamamatsu Photonics K.K.) every one sec for 1 min, and thereafter every two sec for […]. The activity (%) of the test compound was calculated assuming that variation in the fluorescence value when DMSO was added instead of the test compound was 0%, and variation in the fluorescence value when orexin A (human) (PEPTIDE INSTITUTE, INC.) was added at the final concentration of 10 nM was 100%.
row,SMILES,"OX2R agonist activity (3 μM, %)"
1,"CCS(=O)(=O)N[C@@H]1[C@H](Cc2cccc(-c3ccc(F)c(C)c3F)c2F)N(C(=O)C2CCO2)CC1(F)F (stereo partly drawn) [Example 474, N-{(2S,3R)-4,4-difluoro-1-(oxetane-2-carbonyl)-2-[(2,2′,4′-trifluoro-3′-methyl[1,1′-biphenyl]-3-yl)methyl]pyrroldiin-3-yl}ethanesulfonamide]",96%
2,"O=C(C1CCO1)N1CC(F)(F)[C@H](NS(=O)(=O)C2CC2)[C@@H]1Cc1cccc(-c2cccc(F)c2)c1F (stereo partly drawn) [Example 129, N-[(2S,3R)-2-[(2,3′-difluoro[1,1′-biphenyl]-3-yl)methyl]-4,4-difluoro-1-(oxetane-2-carbonyl)pyrrolidin-3-yl]cyclopropanesulfonamide]",92%
3,"CCS(=O)(=O)N[C@@H]1[C@H](Cc2cccc(-c3ccc(F)c(F)c3)c2F)N(C(=O)C2CCO2)CC1(F)F (stereo partly drawn) [Example 467, N-{(2S,3R)-4,4-difluoro-1-(oxetane-2-carbonyl)-2-[(2,3′,4′-trifluoro[1,1′-biphenyl]-3-yl)methyl]pyrrolidin-3-yl}ethanesulfonamide]",105%
4,"CC(C)C(=O)N1C[C@H](F)[C@H](NS(C)(=O)=O)[C@@H]1Cc1cccc(-c2cc(F)cc(F)c2)c1F [Example 316, N-{(2S,3R,4S)-4-fluoro-1-(2-methylpropanoyl)-2-[(2,3′,5′-trifluoro[1,1′-biphenyl]-3-yl)methyl]pyrrolidin-3-yl}methanesulfonamide]",101%
5,"CCS(=O)(=O)N[C@@H]1[C@H](Cc2cccc(-c3cccc(C(F)F)c3)c2F)N(C(=O)C2CC(F)C2)CC1(F)F (stereo partly drawn) [Example 505, N-[(2S,3R)-2-{[3′-(difluoromethyl)-2-fluoro[1,1′-biphenyl]-3-yl]methyl}-4,4-difluoro-1-(3-fluorocyclobutane-1-carbonyl)pyrrolidin-3-yl]ethanesulfonamide]",88%
6,"CCS(=O)(=O)N[C@@H]1[C@H](Cc2cccc(-c3ccc(F)c(F)c3)c2F)N(C(=O)C2CCO2)CC1(F)F (stereo partly drawn) [Example 468, N-{(2S,3R)-4,4-difluoro-1-(oxetane-2-carbonyl)-2-[(2,3′,4′-trifluoro[1,1′-biphenyl]-3-yl)methyl]pyrrolidin-3-yl}ethanesulfonamide]",102%
7,"CCS(=O)(=O)N[C@@H]1[C@H](Cc2cccc(-c3cccc(F)c3)c2F)N(C(=O)C23CC(C2)C3)CC1(F)F [Example 93, N-{(2S,3R)-1-(bicyclo[1.1.1]pentane-1-carbonyl)-2-[(2,3′-difluoro[1,1′-biphenyl]-3-yl)methyl]-4,4-difluoropyrrolidin-3-yl}ethanesulfonamide]",98%
8,"CCS(=O)(=O)N[C@H]1[C@@H](F)CN(C(=O)C(C)C)[C@H]1Cc1cccc(-c2ccccc2)c1F [Example 293, N-[(2S,3R,4S)-4-fluoro-2-[(2-fluoro[1,1′-biphenyl]-3-yl)methyl]-1-(2-methylpropanoyl)pyrrolidin-3-yl]ethanesulfonamide]",83%
9,"CN(C)C(=O)N1CC(F)(F)[C@H](NS(=O)(=O)C2CC2)[C@@H]1Cc1cccc(-c2cc(F)cc(F)c2)c1F [Example 524, (2S,3R)-3-[(cyclopropanesulfonyl)amino]-4,4-difluoro-N,N-dimethyl-2-[(2,3′,5′-trifluoro[1,1′-biphenyl]-3-yl)methyl]pyrrolidine-1-carboxamide]",87%
10,"CCS(=O)(=O)N[C@H]1[C@@H](F)CN(C(=O)C2CCO2)[C@H]1Cc1cccc(-c2cc(C)cc(F)c2)c1F (stereo partly drawn) [Example 501, N-[(2S,3R,4S)-2-[(2,3′-difluoro-5′-methyl[1,1′-biphenyl]-3-yl)methyl]-4-fluoro-1-(oxetane-2-carbonyl)pyrrolidin-3-yl]ethanesulfonamide]",96%
11,"CS(=O)(=O)N[C@@H]1[C@H](Cc2cccc(-c3cccc(F)c3)c2F)N(C(=O)C2CC(F)C2)CC1(F)F (stereo partly drawn) [Example 393, N-[(2S,3R)-2-[(2,3′-difluoro[1,1′-biphenyl]-3-yl)methyl]-4,4-difluoro-1-(3-fluorocyclobutane-1-carbonyl)pyrrolidin-3-yl]methanesulfonamide]",94%
12,"CC(C)(O)C(=O)N1CC(F)(F)[C@H](NS(C)(=O)=O)[C@@H]1Cc1cccc(-c2cccc(Cl)c2)c1F [Example 44, N-[(2S,3R)-2-[(3′-chloro-2-fluoro[1,1′-biphenyl]-3-yl)methyl]-4,4-difluoro-1-(2-hydroxy-2-methylpropanoyl)pyrrolidin-3-yl]methanesulfonamide]",98%
13,"CS(=O)(=O)N[C@@H]1[C@H](Cc2cccc(-c3cccc(F)c3F)c2F)N(C(=O)C2CC(F)C2)CC1(F)F (stereo partly drawn) [Example 436, N-{(2S,3R)-4,4-difluoro-1-(3-fluorocyclobutane-1-carbonyl)-2-[(2,2′,3′-trifluoro[1,1′-biphenyl]-3-yl)methyl]pyrrolidin-3-yl}methanesulfonamide]",92%
14,"CCS(=O)(=O)N[C@@H]1[C@H](Cc2cccc(-c3cccc(OC(F)F)c3)c2F)N(C(=O)C23CC(C2)C3)CC1(F)F [Example 551, N-[(2S,3R)-1-(bicyclo[1.1.1]pentane-1-carbonyl)-2-{[3′-(difluoromethxoy)-2-fluoro[1,1′-biphenyl]-3-yl]methyl}-4,4-difluoropyrrolidin-3-yl]ethanesulfonamide]",93%
15,"O=C(C1CCO1)N1C[C@H](F)[C@H](NS(=O)(=O)C2CC2)[C@@H]1Cc1cccc(-c2ccccc2)c1F (stereo partly drawn) [Example 496, N-[(2S,3R,4S)-4-fluoro-2-[(2-fluoro[1,1′-biphenyl]-3-yl)methyl]-1-(oxetane-2-carbonyl)pyrrolidin-3-yl]cyclopropanesulfonamide]",95%
16,"CS(=O)(=O)N[C@@H]1[C@H](Cc2cccc(-c3cc(F)cc(F)c3)c2F)N(C(=O)[C@@H]2CCO2)CC1(F)F [Example 92, N-{(2S,3R)-4,4-difluoro-1-((2S)-oxetane-2-carbonyl)-2-[(2,3′,5′-trifluoro[1,1′-biphenyl]-3-yl)methyl]pyrrolidin-3-yl}methanesulfonamide]",99%
17,"CCS(=O)(=O)N[C@H]1[C@@H](F)CN(C(=O)N(C)C)[C@H]1Cc1cccc(-c2cccc(C)c2)c1F [Example 333, (2S,3R,4S)-3-[(ethanesulfonyl)amino]-4-fluoro-2-[(2-fluoro-3′-methyl[1,1′-biphenyl]-3-yl)methyl]-N,N-dimethylpyrrolidine-1-carboxamide]",78%
18,"CCS(=O)(=O)N[C@@H]1[C@H](Cc2cccc(-c3cc(F)ccc3F)c2F)N(C(=O)[C@H]2C[C@H](F)C2)CC1(F)F [Example 376, N-{(2S,3R)-4,4-difluoro-1-((1r,3S)-3-fluorocyclobutane-1-carbonyl)-2-[(2,2′,5′-trifluoro[1,1′-biphenyl]-3-yl)methyl]pyrrolidin-3-yl}ethanesulfonamide]",99%
